From patent US20230000812A1, “IBUPROFEN ESTER PRODRUG, PHARMACEUTICAL COMPOSITION, PREPARATION METHOD AND APPLICATION” (NANJING HERON PHARMACEUTICAL SCIENCE AND TECHNOLOGY CO., …, priority 2020, published 2023)
Where two headings read alike, the source gives them in different places.

Key:
[1] = In vitro human plasma metabolism (enzymolysis kinetics test in human plasma); details: for metabolic rate (hydrolysis rate) in human plasma: 0-120 min, FIG. 1 and 2; for degradation rate of the peaks in human plasma: liquid chromatograms, FIG. 3-5
Description: The test scheme was as follows.
The test method was as follows:
(§2) (1) a stock solution of Compound NX (where X represents a different compound number) of the present application in pure acetonitrile (40 mM) was prepared, a stock solution of flurbiprofen axetil in pure acetonitrile (40 mM) was prepared, and a stock solution of ibuprofen in pure acetonitrile (40 mM) was prepared.
(§3) (2) the stock solution of flurbiprofen axetil/ibuprofen (25 μL) was mixed with 1 mL of human plasma and vortexed for 30 s. A sample (200 μL) was taken, added with 800 μL of acetonitrile to precipitate proteins and vortexed for 1 min, and the reaction was stopped as a flurbiprofen axetil/ibuprofen control; and the stock solution of the compound of the present application (40 mM) and the stock solution of flurbiprofen axetil (40 mM) were diluted 200 times separately as prodrug controls;
(§4) (4) the stock solution of the compound of the present application in pure acetonitrile (100 μL) and the stock solution of flurbiprofen axetil in pure acetonitrile (100 μL) were mixed with 4 mL of human plasma, separately, vortexed for 30 s, and placed in an oscillating constant temperature water bath heater at 37° C. and oscillated at 200 rpm;
(§5) (6) the samples were centrifuged at 12000 rpm for 10 min at 4° C., the supernatant was taken and injected at a volume of 30 μL (through a filter membrane), and changes of a peak area were recorded;

[2] = human, 0.98 mM; for Amount of Active Metabolites Produced (%): 120 min; for Remaining Amount of the Prodrug Compound (%): plasma, 2 h
Description: The test scheme was as follows.
The test method was as follows:
as §2, §3, §4, §5

[3] = Stability of dextrorotatory enantiomers in solvents (MCT, soybean oil, phosphate buffer of Tween 80) at 80° C.; assay type: physicochemical; details: for purity of the isomer: oil phase or water phase; for purity of the isomer / related substances in the oil phase / content of the related substance in the water phase: 10 days
Description: Samples were placed at 80° C., and samples were taken on Day 0, 5, and 10 to determine the purity of the compounds and changes of the related substance (ibuprofen) and an isomer (levorotatory).
4.2 Determination of the related substance in accordance with high-performance liquid chromatography (Chinese Pharmacopoeia 2015 Edition General Rules 0512)
(1) Chromatographic conditions: Chromatographic column: Agilent ZORBAX SB-C8, 4.6 mm×250 mm, 5 μm; mobile phase: 0.1% phosphoric acid solution-acetonitrile (50:50); detection wavelength: 220 nm; flowrate: 1.0 mL per minute; column temperature: 40° C.
(§1) (2) Determination method: An appropriate amount of the substance was taken, accurately weighed, added with a diluent [anhydrous ethanol], shaken to be dissolved, quantitatively diluted into a solution of about 0.4 mg/mL, and vortexed for 30s. The solution was filtered with a PTFE filter membrane (0.22 μm, Jinteng) and the filtrate was used as the test solution, 10 μL was accurately measured into a liquid chromatograph and the chromatogram was recorded. In the chromatogram of the test solution, if there were impurity peaks, the results should be obtained by calculation according to a peak area normalization method.
4.3 Determination of the isomer in accordance with high-performance liquid chromatography (Chinese Pharmacopoeia 2015 Edition General Rules 0512)
as §1, with “Determination” for “(2) Determination”, “isomer” for “substance”, “[n-hexane-isopropanol (90:10)],” for “[anhydrous ethanol],”, “1.0” for “0.4”, “isomer” for “impurity”

[4] = Pharmacokinetics in rats after tail vein injection (Test Example 4); details: rat, in vivo
Description: The whole blood was centrifuged at 8000 rpm for 5 min, and plasma samples were taken and stored at −80° C., separately.
Preparation of test solutions: the test solutions were administered through tail veins of rats at a volume of […].

[5] = Phosphate buffer of Tween 80, 80° C., Day 0
[6] = Phosphate buffer of Tween 80, 80° C., Day 5
[7] = Phosphate buffer of Tween 80, 80° C., Day 10

CCC(OC(=O)OC(C)C)OC(=O)[C@@H](C)c1ccc(CC(C)C)cc1 (stereo partly drawn) [Compound N10S]
metabolic rate (hydrolysis rate) in human plasma ([1]; human plasma): relatively slow metabolic rates

CC(C)Cc1ccc(C(C)C(=O)OC(C)OC(=O)OC(C)C)cc1 (stereo not drawn) [Compound N2]
Amount of Active Metabolites Produced (%) [2]: 10.7 ± 0.4% | Remaining Amount of the Prodrug Compound (%) [2]: 87.4 ± 5.3%

CCOC(=O)O[C@@H](CC)OC(=O)[C@@H](C)c1ccc(CC(C)C)cc1 [N9(S)-2]
degradation rate of the peaks in human plasma [1]: different degradation rates

CCOC(=O)OC(C)OC(=O)[C@@H](C)c1ccc(CC(C)C)cc1 (stereo partly drawn) [Compound N6S]
metabolic rate (hydrolysis rate) in human plasma ([1]; human plasma): relatively fast metabolic rates close to that of S-FPA | Remaining Amount of the Prodrug Compound (%) ([1]; human plasma, 37° C., 120 min): 40.5 ± 1.6% | Ibuprofen (%) ([3]; MCT, 80° C., Day 0): 0.03% | Isomer (%) ([3]; MCT, 80° C., Day 0): 3.26% | Purity of related Main Peak (%) ([3]; MCT, 80° C., Day 0): 99.89% | Ibuprofen (%) ([3]; MCT, 80° C., Day 5): 0.05% | Isomer (%) ([3]; MCT, 80° C., Day 5): 3.47% | Purity of related Main Peak (%) ([3]; MCT, 80° C., Day 5): 99.88% | Ibuprofen (%) ([3]; MCT, 80° C., Day 10): 0.06% | Isomer (%) ([3]; MCT, 80° C., Day 10): 3.45% | Purity of related Main Peak (%) ([3]; MCT, 80° C., Day 10): 99.87% | Ibuprofen (%) [3, 5]: 2.42% | Isomer (%) [3, 5]: 3.68% | Purity of related Main Peak (%) [3, 5]: 97.56% | Ibuprofen (%) [3, 6]: 10.24% | Isomer (%) [3, 6]: 3.97% | Purity of related Main Peak (%) [3, 6]: 89.66% | Ibuprofen (%) [3, 7]: 16.98% | Isomer (%) [3, 7]: 3.88% | Purity of related Main Peak (%) [3, 7]: 82.73% | Ibuprofen (%) ([3]; Soybean oil, 80° C., Day 0): 0.03% | Isomer (%) ([3]; Soybean oil, 80° C., Day 0): 3.26% | Purity of related Main Peak (%) ([3]; Soybean oil, 80° C., Day 0): 99.84% | Ibuprofen (%) ([3]; Soybean oil, 80° C., Day 5): 0.08% | Isomer (%) ([3]; Soybean oil, 80° C., Day 5): 3.21% | Purity of related Main Peak (%) ([3]; Soybean oil, 80° C., Day 5): 99.79% | Ibuprofen (%) ([3]; Soybean oil, 80° C., Day 10): 0.16% | Isomer (%) ([3]; Soybean oil, 80° C., Day 10): 3.20% | Purity of related Main Peak (%) ([3]; Soybean oil, 80° C., Day 10): 99.47% | purity of the isomer ([3]; 80° C.): remains basically unchanged | related substances in the oil phase ([3]; 80° C.): remain basically unchanged | content of the related substance in the water phase ([3]; 80° C.): increases

CCOC(=O)OC(C)OC(=O)C(C)c1ccc(CC(C)C)cc1 (stereo not drawn) [Compound N6]
Remaining Amount of the Prodrug Compound (%) [2]: 58.96 ± 3.1%

CCOC(=O)OC(CC)OC(=O)[C@@H](C)c1ccc(CC(C)C)cc1 (stereo partly drawn) [Compound N9S]
metabolic rate (hydrolysis rate) in human plasma ([1]; human plasma): relatively fast metabolic rates close to that of S-FPA | Remaining Amount of the Prodrug Compound (%) ([1]; human plasma, 37° C., 120 min): 45.0 ± 2.1% | Isomer (%) ([3]; MCT, 80° C., Day 0): 0.95% | Purity of related Main Peak (%) ([3]; MCT, 80° C., Day 0): 99.80% | Ibuprofen (%) ([3]; MCT, 80° C., Day 5): 0.02% | Isomer (%) ([3]; MCT, 80° C., Day 5): 0.95% | Purity of related Main Peak (%) ([3]; MCT, 80° C., Day 5): 99.78% | Ibuprofen (%) ([3]; MCT, 80° C., Day 10): 0.04% | Isomer (%) ([3]; MCT, 80° C., Day 10): 0.94% | Purity of related Main Peak (%) ([3]; MCT, 80° C., Day 10): 99.66% | Ibuprofen (%) [3, 5]: 0.63% | Isomer (%) [3, 5]: 0.86% | Purity of related Main Peak (%) [3, 5]: 99.03% | Ibuprofen (%) [3, 6]: 5.27% | Isomer (%) [3, 6]: 1.19% | Purity of related Main Peak (%) [3, 6]: 92.78% | Ibuprofen (%) [3, 7]: 8.76% | Isomer (%) [3, 7]: 1.78% | Purity of related Main Peak (%) [3, 7]: 87.97% | Isomer (%) ([3]; Soybean oil, 80° C., Day 0): 0.91% | Purity of related Main Peak (%) ([3]; Soybean oil, 80° C., Day 0): 99.85% | Ibuprofen (%) ([3]; Soybean oil, 80° C., Day 5): 0.09% | Isomer (%) ([3]; Soybean oil, 80° C., Day 5): 0.90% | Purity of related Main Peak (%) ([3]; Soybean oil, 80° C., Day 5): 99.57% | Ibuprofen (%) ([3]; Soybean oil, 80° C., Day 10): 0.13% | Isomer (%) ([3]; Soybean oil, 80° C., Day 10): 0.97% | Purity of related Main Peak (%) ([3]; Soybean oil, 80° C., Day 10): 99.38% | purity of the isomer ([3]; 80° C.): remains basically unchanged | related substances in the oil phase ([3]; 80° C.): remain basically unchanged | content of the related substance in the water phase ([3]; 80° C.): increases

CC(=O)OC(C)OC(=O)C(C)c1ccc(-c2ccccc2)c(F)c1 (stereo not drawn) [FPA, flurbiprofen axetil, reference compound]
Remaining Amount of the Prodrug Compound (%) [1]: 50.9 ± 2.5%

CCOC(=O)O[C@@H](C)OC(=O)[C@@H](C)c1ccc(CC(C)C)cc1 [N6(S)-2]
degradation rate of the peaks in human plasma [1]: different degradation rates

CC(=O)OC(C)OC(=O)[C@@H](C)c1ccc(-c2ccccc2)c(F)c1 (stereo partly drawn) [S-FPA, reference compound]
Amount of Active Metabolites Produced (%) ([1]; human plasma, 37° C., 120 min): 44.3 ± 2.3% | Remaining Amount of the Prodrug Compound (%) ([1]; human plasma, 37° C., 120 min): 37.4 ± 1.9%

CC(C)Cc1ccc([C@H](C)C(=O)OC(C)OC(=O)OC(C)C)cc1 (stereo partly drawn) [Compound N2S]
metabolic rate (hydrolysis rate) in human plasma ([1]; human plasma): relatively slow metabolic rates | Remaining Amount of the Prodrug Compound (%) ([1]; human plasma, 37° C., 120 min): 78.6 ± 2.6% | degradation rate of the peaks in human plasma [1]: relatively slow degradation rate

CCOC(=O)OC(CC)OC(=O)C(C)c1ccc(CC(C)C)cc1 (stereo not drawn) [Compound N9]
AUC0-t compared with dexibuprofen salt solution directly injected [4]: no significant difference | Amount of Active Metabolites Produced (%) [2]: 20.3 ± 0.8% | Remaining Amount of the Prodrug Compound (%) [2]: 62.5 ± 1.3%

CCOC(=O)O[C@H](C)OC(=O)[C@@H](C)c1ccc(CC(C)C)cc1 [N6(S)-1]
degradation rate of the peaks in human plasma [1]: different degradation rates
